According to patent publication US10208033B2, “β-carboline, dihydro-β-carboline and tetrahydro-β-carboline alkaloid derivatives and preparation methods same and use in aspects of preventing and treating plant viruses, fungicides and insecticides” (NANKAI UNIVERSITY, priority 2013, dated 2019):

Assays:
[1] = system: tobacco mosaic virus (TMV); experiment: Anti-TMV in vitro effect (half-leaf soaking); assay type: cell-based, tobacco mosaic virus (host Nicotiana tabacum L.cv.Xanthi NN); conditions: for inhibition at 100 µg/mL / inhibition at 500 µg/mL: Tobacco mosaic virus, read-out: Relative inhibition rate (%) In vitro activity
[2] = system: tobacco mosaic virus (TMV); experiment: Anti-TMV in vivo inactivation; parameters: species or system tobacco mosaic virus (host Nicotiana tabacum L.cv.Xanthi NN); conditions: for inhibition at 100 µg/mL / inhibition at 500 µg/mL: Tobacco mosaic virus, read-out: Relative inhibition rate (%) In vivo inactivation
[3] = system: tobacco mosaic virus (TMV); experiment: Anti-TMV in vivo therapeutic effect; parameters: species or system tobacco mosaic virus (host Nicotiana tabacum L.cv.Xanthi NN); conditions: for inhibition at 100 µg/mL / inhibition at 500 µg/mL: Tobacco mosaic virus, read-out: Relative inhibition rate (%) In vivo therapy
[4] = system: tobacco mosaic virus (TMV); experiment: Anti-TMV in vivo protective effect; parameters: species or system tobacco mosaic virus (host Nicotiana tabacum L.cv.Xanthi NN); conditions: for inhibition at 100 µg/mL / inhibition at 500 µg/mL: Tobacco mosaic virus, read-out: Relative inhibition rate (%) In vivo protection
cucumber fusarium wilt = experiment: Fungicidal (bactericidal) activity in vitro, PDA colony diameter; assay type: cell-based; conditions: 50 mg/kg; for inhibition of growth at 50 mg/kg: Fusarium, 96 h
Cercospora arachidicola = experiment: as above; assay type: cell-based; conditions: 50 mg/kg; for inhibition of growth at 50 mg/kg: Mycosphaerella arachidis, 96 h
Macrophoma kawatsukai = experiment: as above; assay type: cell-based; conditions: 50 mg/kg
Alternaria solani = experiment: as above; assay type: cell-based; conditions: 50 mg/kg; for inhibition of growth at 50 mg/kg: Alternaria solani, 96 h
Fusarium graminearumt = experiment: microbe, parasite or virus in culture; assay type: cell-based; conditions: for inhibition of growth at 50 mg/kg: Fusarium, 96 h, read-out: Bactericidal activity (%) Fusarium graminearumt
potato late blight = experiment: microbe, parasite or virus in culture; assay type: cell-based; conditions: for inhibition of growth at 50 mg/kg: Phytophthora infestans, 96 h, read-out: Bactericidal activity (%) potato late blight
Sclerotinia scleotiorum = experiment: Fungicidal (bactericidal) activity in vitro, PDA colony diameter; assay type: cell-based; conditions: 50 mg/kg; for inhibition of growth at 50 mg/kg: Sclerotinia, 96 h
Botrytis cinerea = experiment: as above; assay type: cell-based; conditions: 50 mg/kg; for inhibition of growth at 50 mg/kg: Botrytis cinerea, 96 h
Rhizoctonia solani = experiment: as above; assay type: cell-based; conditions: 50 mg/kg; for inhibition of growth at 50 mg/kg: Rhizoctonia solani, 96 h
Phytophthora capsici = experiment: as above; assay type: cell-based; conditions: 50 mg/kg; for inhibition of growth at 50 mg/kg: Phytophthora capsici, 96 h
Fusarium fujikuroi = experiment: as above; assay type: cell-based; conditions: for inhibition of growth at 50 mg/kg: Fusarium fujikuroi, 96 h
Rhizoctonia cereali = experiment: as above; assay type: cell-based; conditions: 50 mg/kg; for inhibition of growth at 50 mg/kg: Rhizoctonia, 96 h
Bipolaria maydis = experiment: organism not typed; assay type: cell-based; conditions: for inhibition at 50 mg/kg: read-out: Bactericidal activity (%) Bipolaria maydis
[5] = system: Colletotrichum orbiculare; experiment: Fungicidal (bactericidal) activity in vitro, PDA colony diameter; assay type: cell-based; conditions: 50 mg/kg; for inhibition of growth at 50 mg/kg: Colletotrichum orbiculare, 96 h
armyworms = assay type: in vivo; conditions: concentration 600 mg/kg
cotton bollworms = experiment: whole plant or invertebrate; conditions: for mortality at 600 mg/kg: Helicoverpa armigera, in Gossypium hirsutum, read-out: Cotton bollworm Mortality (%)
Description: Experimental method of cotton bollworms: feed and drug mixing method: measure 3 mL of prepared solution and add it to about 27 g of newly prepared feed, thereby obtaining needed concentration through dilution by 10 times.

mosquito larvae = experiment: whole plant or invertebrate; conditions: for mortality at 5 mg/kg / mortality at 10 mg/kg: Culex pipiens, read-out: Mosquito larvae Mortality (%); for mortality at 5 mg/kg / mortality at 10 mg/kg / Mosquito larvae Mortality (%): 24 h; for activity against culex pipiens larvae (in words): at 5 mg/kg
Procedure, shortened: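 Early fourth-instar Culex pipiens pallens larvae from an indoor colony, 10 per beaker, exposed to test compound at 5 ppm in water, diluted from a 1000 ppm acetone mother solution. Blank: water containing 0.5 mL test solvent.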

[6] = system: armyworms, cotton bollworms and corn borers; experiment: Insecticidal activity, overall statements on Table 3; assay type: in vivo; conditions: Table 3, 600 mg/kg
corn borers [7] = experiment: whole plant or invertebrate; conditions: read-out: Corn borer Mortality (%)
corn borers [8] = conditions: concentration 600 mg/kg

`CCCCNC(=O)[C@@H]1Cc2c([nH]c3ccccc23)[C@H](C)N1` [Ib-16, (1S, 3S)—N-butyl-1-methyl-2,3,4,9-tetrahydro-pyridino [3,4-b] indol-3-formamide] gave an inhibition at 100 µg/mL ([1]; treatment dose 100 μg/mL) of 0%, an inhibition at 500 µg/mL ([1]; treatment dose 500 μg/mL) of 38.4% and an inhibition at 100 µg/mL ([2]; treatment dose 100 μg/mL) of 13.5%. It also gave an inhibition at 500 µg/mL ([2]; treatment dose 500 μg/mL) of 44%, an inhibition at 100 µg/mL ([3]; treatment dose 100 μg/mL) of 21.1% and an inhibition at 500 µg/mL ([3]; treatment dose 500 μg/mL) of 44.9%. For the same compound, the inhibition at 100 µg/mL ([4]; treatment dose 100 μg/mL) was 15.8%, the inhibition at 500 µg/mL ([4]; treatment dose 500 μg/mL) was 42.1% and the inhibition of growth at 50 mg/kg (cucumber fusarium wilt) was 23.1%. For the same compound, the inhibition of growth at 50 mg/kg (Cercospora arachidicola) was 84.6%, the inhibition at 50 mg/kg (Macrophoma kawatsukai) was 33.3% and the inhibition of growth at 50 mg/kg (Alternaria solani) was 21.1%. For the same compound, the inhibition of growth at 50 mg/kg (Fusarium graminearumt) was 14.3%, the inhibition of growth at 50 mg/kg (potato late blight) was 22.7% and the inhibition of growth at 50 mg/kg (Sclerotinia scleotiorum) was 0%. The inhibition of growth at 50 mg/kg (Botrytis cinerea) was 18.2%, the inhibition of growth at 50 mg/kg (Rhizoctonia solani) was 46.1% and the inhibition of growth at 50 mg/kg (Phytophthora capsici) was 18.8%. For the same compound, the inhibition of growth at 50 mg/kg (Fusarium fujikuroi) was 14.3%, the inhibition of growth at 50 mg/kg (Rhizoctonia cereali) was 57.9% and the inhibition at 50 mg/kg (Bipolaria maydis) was 18.2%. For the same compound, the inhibition of growth at 50 mg/kg [5] was 28.6%, the “Armyworm Mortality (%)” value (armyworms) was 65% and the mortality at 600 mg/kg (cotton bollworms) was 50%. The mortality at 5 mg/kg (mosquito larvae) was 60%, the mortality at 10 mg/kg (mosquito larvae) was 100% and the “activity against culex pipiens larvae (in words)” value (mosquito larvae) was “still show high activity”. The “activity against armyworms, cotton bollworms and corn borers (in words)” value (“activity against armyworms” below) [6] was “broad-spectrum activity” and the mortality at 600 mg/kg (corn borers [7]) was 50%.
`C[C@@H]1N[C@H](C(=O)N/N=C/c2ccccc2)Cc2c1[nH]c1ccccc21` [Ic-1, (1S, 3S)—N′-benzylidene-1-methyl-2,3,4,9-tetrahydropyridino [3,4-b] indol-3-formylhydrazine] gave an inhibition at 100 µg/mL ([1]; treatment dose 100 μg/mL) of 28.4%, an inhibition at 500 µg/mL ([1]; treatment dose 500 μg/mL) of 55.8% and an inhibition at 100 µg/mL ([2]; treatment dose 100 μg/mL) of 19.6%. For the same compound, the inhibition at 500 µg/mL ([2]; treatment dose 500 μg/mL) was 56.3%, the inhibition at 100 µg/mL ([3]; treatment dose 100 μg/mL) was 16% and the inhibition at 500 µg/mL ([3]; treatment dose 500 μg/mL) was 51.5%. The inhibition at 100 µg/mL ([4]; treatment dose 100 μg/mL) was 21.8%, the inhibition at 500 µg/mL ([4]; treatment dose 500 μg/mL) was 53.2% and the inhibition of growth at 50 mg/kg (cucumber fusarium wilt) was 36.4%. For the same compound, the inhibition of growth at 50 mg/kg (Cercospora arachidicola) was 72.7%, the inhibition at 50 mg/kg (Macrophoma kawatsukai) was 36.4% and the inhibition of growth at 50 mg/kg (Alternaria solani) was 57.1%. It also gave an inhibition of growth at 50 mg/kg (Fusarium graminearumt) of 53.8%, an inhibition of growth at 50 mg/kg (potato late blight) of 30.4% and an inhibition of growth at 50 mg/kg (Sclerotinia scleotiorum) of 26.9%. The inhibition of growth at 50 mg/kg (Botrytis cinerea) was 88.9%, the inhibition of growth at 50 mg/kg (Rhizoctonia solani) was 48.6% and the inhibition of growth at 50 mg/kg (Phytophthora capsici) was 69.7%. It also gave an inhibition of growth at 50 mg/kg (Fusarium fujikuroi) of 58.8%, an inhibition of growth at 50 mg/kg (Rhizoctonia cereali) of 86.5% and an inhibition at 50 mg/kg (Bipolaria maydis) of 60%. For the same compound, the inhibition of growth at 50 mg/kg [5] was 52%, the “Armyworm Mortality (%)” value (armyworms) was 75% and the mortality at 600 mg/kg (cotton bollworms) was 55%. For the same compound, the mortality at 5 mg/kg (mosquito larvae) was 80%, the mortality at 10 mg/kg (mosquito larvae) was 100% and the “activity against culex pipiens larvae (in words)” value (mosquito larvae) was “still show high activity”. For the same compound, the “activity against armyworms” value [6] was “broad-spectrum activity” and the mortality at 600 mg/kg (corn borers [7]) was 60%.
With `COc1ccc(C=NNC(=O)[C@@H]2Cc3c([nH]c4ccccc34)[C@H](C)N2)cc1OC` [Ic-11, (1S, 3S)—N′-(3,4-dimethoxybenzylidene)-1-methyl-2,3,4,9-tetrahydropyridino [3,4-b] indol-3-formylhydrazine] the “Relative inhibition rate (%) In vitro activity” value ([1]; treatment dose 100 μg/mL) was 7.8%, the “Relative inhibition rate (%) In vitro activity” value ([1]; treatment dose 500 μg/mL) was 37.2% and the “Relative inhibition rate (%) In vivo inactivation” value ([2]; treatment dose 100 μg/mL) was 20.3%. For the same compound, the “Relative inhibition rate (%) In vivo inactivation” value ([2]; treatment dose 500 μg/mL) was 47.1%, the “Relative inhibition rate (%) In vivo therapy” value ([3]; treatment dose 100 μg/mL) was 16.2% and the “Relative inhibition rate (%) In vivo therapy” value ([3]; treatment dose 500 μg/mL) was 40.5%. For the same compound, the “Relative inhibition rate (%) In vivo protection” value ([4]; treatment dose 100 μg/mL) was 11%, the “Relative inhibition rate (%) In vivo protection” value ([4]; treatment dose 500 μg/mL) was 42.3% and the “Bactericidal activity (%) Cucumber fusarium wilt” value (cucumber fusarium wilt) was 22.7%. The “Bactericidal activity (%) Cercospora arachidicola” value (Cercospora arachidicola) was 45.5%, the “Bactericidal activity (%) Macrophoma kawatsukai” value (Macrophoma kawatsukai) was 66.7% and the “Bactericidal activity (%) Alternaria solani” value (Alternaria solani) was 52.4%. For the same compound, the “Bactericidal activity (%) Fusarium graminearumt” value (Fusarium graminearumt; 50 mg/kg) was 30.8%, the “Bactericidal activity (%) potato late blight” value (potato late blight) was 30.4% and the “Bactericidal activity (%) Sclerotinia scleotiorum” value (Sclerotinia scleotiorum) was 21.2%. For the same compound, the “Bactericidal activity (%) Botrytis cinerea” value (Botrytis cinerea) was 66.7%, the “Bactericidal activity (%) Rhizoctonia solani” value (Rhizoctonia solani) was 44.4% and the “Bactericidal activity (%) Phytophthora capsici” value (Phytophthora capsici) was 84.8%. For the same compound, the “Bactericidal activity (%) Fusarium fujikuroi” value (Fusarium fujikuroi) was 47.1%, the “Bactericidal activity (%) Rhizoctonia cereali” value (Rhizoctonia cereali) was 89.2% and the “Bactericidal activity (%) Bipolaria maydis” value (Bipolaria maydis; 50 mg/kg) was 52.0%. For the same compound, the “Bactericidal activity (%) Colletotrichum orbiculare” value [5] was 72.0%, the “Armyworm Mortality (%)” value (armyworms) was 65% and the “Cotton bollworm Mortality (%)” value (cotton bollworms; concentration 600 mg/kg) was 40%. For the same compound, the “Mosquito larvae Mortality (%)” value (mosquito larvae; concentration 5 mg/kg) was 40%, the “Mosquito larvae Mortality (%)” value (mosquito larvae; concentration 10 mg/kg) was 100% and the “activity against armyworms” value [6] was “broad-spectrum activity”. For the same compound, the “Corn borer Mortality (%)” value (corn borers [8]) was 55%.
